Consider one compound from ChEMBL document CHEMBL1141637, “Synthesis and anti-inflammation evaluation of new C60 fulleropyrrolidines bearing biologically active xanthine” (2008).

Assay [1] relates to J774.A1. Description: Reduction of LPS-induced nitric oxide production in mouse J774A.1 cells at 10 uM after 3 hrs relative to control. Type of assay: functional. On the set-up: scale not given: the % may be the effect or the level left.
The subject of assay [2] is J774.A1. Description: Reduction of LPS-induced TNFalpha production in mouse J774A.1 cells at 10 uM after 3 hrs by ELISA relative to control. Type of assay: functional. On the set-up: scale not given: the % may be the effect or the level left. A general note: ELISA stands for enzyme-linked immunosorbent assay.

Regarding `CC(=O)CCCCn1c(=O)c2c(ncn2C)n(C)c1=O` [PENTOXIFYLLINE], the values for the Activity in the assay with J774.A1 [1] and in the assay on J774.A1 [2] were 33.9% and 7.5%, respectively.
